Assay results reported in ChEMBL document CHEMBL1153054, “Functionalized 3-amino-imidazo[1,2-a]pyridines: a novel class of drug-like Mycobacterium tuberculosis glutamine synthetase inhibitors” (Bioorg Med Chem Lett, 2009).

Assay: Inhibition of Mycobacterium tuberculosis glutamine synthetase

SMILES	IC50	IC50 (read-out: IC50)
Oc1ccc(-c2nc3ccc(Br)cn3c2NC2CCCC2)cc1	ND(Insoluble)	
Oc1ccccc1-c1nc2ccc(Br)cn2c1NC1CCCC1		> 50 µM
O=C(O)c1cccc(-c2nc3ccc(Br)cn3c2NC2CCCC2)c1		0.38 µM
COc1ccc(-c2nc3ccc(C(F)(F)F)cn3c2NC2CCCC2)cc1O		> 50 µM
COc1ccc(-c2nc3ccc(Oc4ccccc4)cn3c2NC2CCCC2)cc1O		> 50 µM
Brc1ccc2ncc(NC3CCCC3)n2c1		> 50 µM
COc1cccc(-c2nc3ccc(Br)cn3c2NC2CCCC2)c1OC		> 50 µM
O=[N+]([O-])c1ccc(-c2nc3ccc(Br)cn3c2NC2CCCC2)cc1O		> 50 µM
COc1ccc(-c2nc3ccc(Cl)cn3c2NC2CCCC2)cc1O		11.2 µM
COc1ccc(-c2nc3ccc(C)cn3c2NC2CCCC2)cc1O		> 50 µM
OCc1cccc(-c2nc3ccc(Br)cn3c2NC2CCCC2)c1		13.2 µM
COc1ccc(-c2nc3ccc(F)cn3c2NC2CCCC2)cc1O		> 50 µM
COc1ccc(-c2nc3c(C)cc(Br)cn3c2NC2CCCC2)cc1O		12.7 µM
COc1ccc(-c2nc3ccc(Cc4ccccc4)cn3c2NC2CCCC2)cc1O		> 50 µM
COc1ccc(-c2nc3ccc(/C=C/c4ccccc4)cn3c2NC2CCCC2)cc1O		> 50 µM
Oc1cccc(-c2nc3ccc(Br)cn3c2NC2CCCC2)c1Cl		> 50 µM
Oc1cccc(-c2nc3ccc(Br)cn3c2NC2CCCC2)c1		> 50 µM

SMILES	IC50	IC50 (read-out: IC50)
COc1ccc(-c2nc3ccc(CCc4ccccc4)cn3c2NC2CCCC2)cc1O		> 50 µM
O=[N+]([O-])c1cccc(-c2nc3ccc(Br)cn3c2NC2CCCC2)c1		> 50 µM
COc1ccc(-c2nc3ccc(-c4ccncc4)cn3c2NC2CCCC2)cc1O		> 50 µM
COc1ccc(-c2nc3c(Br)cccn3c2NC2CCCC2)cc1O		21.3 µM
COc1ccc(-c2nc3c(Br)cc(Br)cn3c2NC2CCCC2)cc1O		> 50 µM
COc1ccc(-c2nc3ccc(Br)cn3c2NC2CCCC2)cc1O		8.8 µM
Nc1cccc(-c2nc3ccc(Br)cn3c2NC2CCCC2)c1		10.1 µM
COc1ccc2nc(-c3ccc(OC)c(O)c3)c(NC3CCCC3)n2c1		31.3 µM
COc1ccc(-c2nc3ccccn3c2NC2CCCC2)cc1O		> 50 µM
Brc1ccc2nc(-c3ccccc3)c(NC3CCCC3)n2c1		> 50 µM
COc1ccc(-c2nc3ccc(I)cn3c2NC2CCCC2)cc1O		4.8 µM
COc1cccc(-c2nc3ccc(Br)cn3c2NC2CCCC2)c1		> 50 µM
COc1cc(-c2nc3ccc(Br)cn3c2NC2CCCC2)ccc1O		> 50 µM
COc1ccc(-c2nc3ccc(-c4ccccc4)cn3c2NC2CCCC2)cc1O		> 50 µM
COc1ccc(-c2nc3ccc(C#N)cn3c2NC2CCCC2)cc1O		> 50 µM
COc1ccc(-c2nc3cccc(Br)n3c2NC2CCCC2)cc1O		> 50 µM
